Values joined by “and” are separate entries in the source; they are usually repeats but may differ in a detail not shown here. Equal entries are not always repeated.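 In this assay, cells in 96-well plates receive the compound at five concentrations for 48 hours. Endpoints are linearly interpolated between the surrounding concentrations. Abbreviation: GI50, concentration required for 50% inhibition of growth. TGI: total growth inhibition.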
Legend:
Test in all cases: NCI-60 cell line screen, 48 h
PC-3 prostate = system: PC-3 prostate
OVCAR-4 ovarian = system: OVCAR-4 ovarian
SF-539 CNS = system: SF-539 CNS
UACC-62 melanoma = system: UACC-62 melanoma
SK-MEL-28 melanoma = system: SK-MEL-28 melanoma
OVCAR-3 ovarian = system: OVCAR-3 ovarian
HCT-15 colon = system: HCT-15 colon
SK-MEL-2 melanoma = system: SK-MEL-2 melanoma
NCI-H460 lung = system: NCI-H460 lung
RPMI-8226 leukemia = system: RPMI-8226 leukemia

| SMILES | GI50 (PC-3 prostate) | TGI (PC-3 prostate) [µM] | GI50 (OVCAR-4 ovarian) | TGI (OVCAR-4 ovarian) [µM] | GI50 (SF-539 CNS) [µM] | TGI (SF-539 CNS) [µM] | GI50 (UACC-62 melanoma) [µM] | TGI (UACC-62 melanoma) | GI50 (SK-MEL-28 melanoma) [µM] | TGI (SK-MEL-28 melanoma) [µM] | GI50 (OVCAR-3 ovarian) | TGI (OVCAR-3 ovarian) [µM] | GI50 (HCT-15 colon) | TGI (HCT-15 colon) [µM] | GI50 (SK-MEL-2 melanoma) [µM] | TGI (SK-MEL-2 melanoma) [µM] | GI50 (NCI-H460 lung) | TGI (NCI-H460 lung) | GI50 (RPMI-8226 leukemia) | TGI (RPMI-8226 leukemia) |
| --- | --- | --- | --- | --- | --- | --- | --- | --- | --- | --- | --- | --- | --- | --- | --- | --- | --- | --- | --- | --- |
| C[N+](C)(CCCCCC[N+](C)(C)CCCN1C(=O)c2cc3ccccc3cc2C1=O)CCCN1C(=O)c2ccccc2C1=O | > 37.5 µM | > 37.5 | > 37.5 µM | > 37.5 | > 37.5 | > 37.5 | > 37.5 | > 37.5 µM | > 37.5 | > 37.5 | > 37.5 µM | > 37.5 | > 37.5 µM | > 37.5 | > 37.5 | > 37.5 | > 37.5 µM | > 37.5 µM | > 37.5 µM | > 37.5 µM |
| Cc1ccc2c(N)c(C(=O)N[C@H]3CCc4cc(N5CC6CCC(C5)N6)ccc4C3)sc2n1 | 0.676 µM | – | 0.301 µM | 1.96 | 0.531 | 2.21 | 0.709 | 3.11 µM | 0.586 | 2.81 | 0.547 µM | 2.63 | 0.34 µM | 2.36 | 0.44 | 1.29 | 0.152 µM | 1.43 µM | 0.764 µM | 3.42 µM |
| Nc1ccccc1C#C/C=C\C#Cc1ccc(Cl)cc1Cl | 9.04 µM | 42.1 | 28.5 µM | > 100 | 12.3 | 28.9 | 14.5 | 31.7 µM | 27 | > 100 | 5.19 µM | 17.9 | – | – | 25 | 70.1 | 10.7 µM | 26.5 µM | 0.89 µM | 30.5 µM |
| CC1(C)N=C(N)N=C(N)N1c1cc(Cl)ccc1Cl | > 100 µM | > 100 | 86.8 µM | > 100 | > 100 | > 100 | > 100 | > 100 µM | > 100 | > 100 | 53.1 µM | > 100 | > 100 µM | > 100 | > 100 | > 100 | 60.6 µM | > 100 µM | > 100 µM | > 100 µM |
| CCSc1nc(N=Cc2cccs2)c2cn[nH]c2n1 | 20.7 µM | > 100 | 17.8 µM | 67.4 | 25.3 | > 100 | 8.39 | 23.1 µM | 22.3 | > 100 | 10.4 µM | 53.9 | 24.6 µM | > 100 | 26.2 | > 100 | 14.5 µM | > 100 µM | 3.19 µM | > 100 µM |
| COc1ccc(-c2nc(-c3ccccc3)c(-c3ccccc3)n2C2CC2)cc1OC1CCCC1 | 22.6 µM | > 165 | 97.4 µM | > 165 | 90.9 | > 165 | – | – | > 165 | > 165 | 102 µM | > 165 | 7.26 µM | > 165 | 105 | > 165 | 11 µM | > 165 µM | 48.8 µM | > 165 µM |
| O=[N+]([O-])/C=C/c1c[nH]c2ccccc12 | 24.2 µM | 64.8 | 12.4 µM | 26.8 | 15.4 | 35.6 | 17.4 | 32.3 µM | 17.4 | 32.5 | 15.4 µM | 33 | 18.2 µM | 45.7 | 18.6 | 37.8 | 17 µM | 46.3 µM | 1.83 µM | 7.7 µM |
| CC(C)(O)C1OCC(C2CCC3(C)C4=CCC5C(C)(C)C(O)CCC5(C)C4CCC23C)CC1O (stereo not given) | – | 26.7 | – | 27.5 | – | 26.4 | – | 29.5 µM | – | 29.2 | – | 40 | – | 28 | – | 48.7 | – | 26.1 µM | – | 77.8 µM |
| COc1ccc(-c2cn[nH]c2-c2cc(OC)c(OC)c(OC)c2)cc1N | < 0.01 µM and 0.0339 µM | > 100 | 0.013 µM and 0.0877 µM | > 100 | < 0.01 | > 100 | < 0.01 | 70.1 µM and > 100 µM | – | > 100 | < 0.01 µM and 0.0281 µM | – | < 0.01 µM and 0.0298 µM | > 100 | – | > 100 | < 0.01 µM and 0.0343 µM | 13.3 µM and > 38.5 µM | < 0.01 µM and 0.0535 µM | 30.8 µM and 54.1 µM |
| Cc1nc2cccc(NCc3ccc(C(=O)NO)cc3)c2c(=O)n1-c1ccccc1 | 1.9 µM | 6.14 | 2.67 µM | 9.64 | 1.89 | 4.05 | – | – | 1.97 | 3.92 | 2.16 µM | 4.9 | 1.68 µM | 3.41 | 2.36 | 5.12 | 2.21 µM | 10.5 µM | 2.39 µM | > 100 µM |
| O=C1C=Cc2ccccc2/C1=C/c1[nH]c(=O)[nH]c1O | 3.61 µM | > 100 | 4.22 µM | 23.4 | 3.38 | 16.8 | 3.45 | > 100 µM | – | – | 2.51 µM | 7.73 | 7.44 µM | > 100 | 2.97 | 8.71 | 9.71 µM | 30.9 µM | 45.2 µM | > 100 µM |
| COC(=O)C(Nc1ccc(OC)cc1)c1ccccc1 (stereo not given) | – | > 100 | – | – | – | > 100 | – | > 100 µM | – | > 100 | – | > 100 | – | > 100 | – | > 100 | – | > 100 µM | – | > 100 µM |
| O=C(C(Br)Br)C(Br)C(Br)c1ccccc1 (stereo not given) | 3.67 µM | 15.2 | – | – | 2.43 | 7.84 | 3.25 | 11.5 µM | 6.7 | 22.1 | 2.72 µM | 6.44 | 1.96 µM | 4.38 | 13.7 | 35.7 | 24.5 µM | 66.4 µM | 1.54 µM | 4.36 µM |

— PubChem BioAssay (NCI)
